Assay [1] concerns isolated rings of thoracic aorta. The assay is described as follows: Evaluation of release of NO: vasorelaxing activity on endothelium-denuded aortic rings contracted with KCl. The note with it: for IC50 / Emax: Rattus norvegicus; for IC50 / NO release properties pIC50 (vasorelaxing potency): concentration reducing contractile tone induced by 20 mM KCl by half; for IC50: read-out: NO release properties pIC50 (vasorelaxing potency) (converted); for Emax / NO release properties Emax (maximum vasorelaxing effect): relative to contractile tone induced by 20 mM KCl, 1 nM-10 μM; for Emax: read-out: NO release properties Emax (maximum vasorelaxing effect). Further details: species or system rat; key to NO release properties Emax (maximum vasorelaxing effect) / NO release properties pIC50 (vasorelaxing potency): S.E: Scarcely Effective: it is not possible to detect NO release comparable to the other compounds mentioned here. The method, then:
The activity of the compounds was evaluated on isolated rings of thoracic aorta of normotensive male Wistar rats (250-350 g). After light anaesthesia with ether, the rats were sacrificed by cervical dislocation and exsanguination. The aortas were immediately excised, extraneous tissues were removed and the endothelial layer was removed by gently rubbing the surface with a hypodermic needle. Rings of aorta with a width of 5 mm were suspended, with a preload of 2 g, in 20-ml organ baths, containing a solution of “Tyrode” (composition of the saline solution in mM: NaCl 136.8; KCl 2.95; CaCl2 1.80; MgSO4 1.05; NaH2PO4 0.41; NaHCO3 11.9; glucose 5.5), thermostatically controlled at 37° C. and kept in an atmosphere of O2 (95%) and CO2 (5%). […] were recorded by means of an isometric transducer (FTO3 Erba), connected to a microdynamometer (Buxco Electronics).
60 minutes after preparation, removal of the endothelium was confirmed by acetylcholine (ACH) (10 μM) treatment of the vascular rings pre-contracted with KCl (20 mM). Relaxation of less than 10% of the contraction induced by KCl was considered as representative of acceptable removal of the endothelial layer, whereas organs displaying relaxation ≧10% were discarded. 40 minutes after confirmation of complete removal of the endothelium, the aortas were contracted by treatment with a single dose of KCl (20 mM) and after the contraction reached a stable plateau, increasing cumulative concentrations (with progressive increments of 3 times) of the test compounds (1 nM-10 μM) were added. It was found from preliminary experiments that the contraction induced by KCl (20 mM) remained stable in a tonic state for at least 40 minutes. The same experiments were performed in the presence of a well-known inhibitor of guanylate cyclase: ODQ 1 μM, which was incubated in aorta preparations after confirmation of removal of the endothelium.
Analysis of the results. The vasorelaxing activity was evaluated as a percentage (%) relative to the contractile tone induced by 20 mM KCl. The pharmacodynamic efficacy parameter (Emax) corresponds to the maximum vasorelaxing effect induced by the molecule tested, expressed as percentage relative to the contractile tone induced by 20 mM KCl. When the limit concentration of 10 μM (the highest concentration administered) of the test compounds has not reached the maximum effect, the efficacy parameter (Emax) corresponds to the vasorelaxing effect induced by the limit concentration (expressed as percentage relative to the contractile tone induced by 20 mM KCl). The pharmacodynamic parameter of potency of the compounds was expressed as pIC50 calculated as the negative logarithm of the molar concentration of test compound that reduces the contractile tone induced by 20 mM KCl by half. […] The parameters of efficacy and potency were expressed as mean±standard error, for 5-10 experiments. The experimental data were analysed by the program GraphPad Prism 3.0.

A further assay has as its target COX-2 (Mus musculus (Mouse), UniProt Q05769). In words: Evaluation of COX-2 activity: PGE2 production in LPS-stimulated J774 cells. It is filed as cell-based, murine. As to conditions: J774 cells stimulated 24 hours with LPS 10 μg/mL; PGE2 by radio-immunological assay; read-out: Cyclooxygenase inhibition COX-2 IC50. The protocol:
The murine monocyte/macrophage cell line J774 is grown in Dulbecco's modified Eagle's medium (DMEM), enriched with glutamine (2 mM), HEPES (25 mM), penicillin (100 u/mL), streptomycin (100 μg/mL), 10% of fetal bovine serum (FBS) and 1.2% of sodium pyruvate. […] Just before the experiments, the culture medium is replaced with fresh medium without FBS to avoid interference during the radio-immunological phase and the cells are stimulated as described below.
The supernatants are collected for evaluating, by means of radio-immunological assays, the amount of PGE2 produced.
In each group of experiments, wells were used in triplicate for the different treatment conditions. […] The data were evaluated using the sigmoidal dose-response equation (variable slope) (GraphPad software). IC50 and the 95% precision intervals were calculated with the program GraphPad Instat (GraphPad software).

Sequence of COX-2 (Q05769 18-604): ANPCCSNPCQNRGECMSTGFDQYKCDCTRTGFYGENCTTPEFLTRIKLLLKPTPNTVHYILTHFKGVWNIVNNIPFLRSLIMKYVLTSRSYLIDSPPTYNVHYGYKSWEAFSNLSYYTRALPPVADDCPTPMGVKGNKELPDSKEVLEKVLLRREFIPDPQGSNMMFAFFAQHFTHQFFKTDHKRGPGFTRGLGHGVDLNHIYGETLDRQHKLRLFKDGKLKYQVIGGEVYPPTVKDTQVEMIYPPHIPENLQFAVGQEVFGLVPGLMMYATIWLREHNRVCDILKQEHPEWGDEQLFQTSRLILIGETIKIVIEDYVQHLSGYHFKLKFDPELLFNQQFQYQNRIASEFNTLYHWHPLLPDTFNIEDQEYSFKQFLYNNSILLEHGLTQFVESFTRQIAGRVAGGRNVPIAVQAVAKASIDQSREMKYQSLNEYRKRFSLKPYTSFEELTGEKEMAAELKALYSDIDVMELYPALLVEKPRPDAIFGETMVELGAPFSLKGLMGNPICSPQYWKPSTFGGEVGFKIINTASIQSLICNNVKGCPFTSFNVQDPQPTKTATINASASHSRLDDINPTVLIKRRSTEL

For `Cc1c(CC(=O)OCC(CO[N+](=O)[O-])O[N+](=O)[O-])cc(-c2ccc(S(C)(=O)=O)cc2)n1-c1ccccc1` (racemic) [Example 15, (R,S)-2,3-bis(Nitrooxy)propyl-2-[1-phenyl-2-methyl-5-(4-methylsulphonylphenyl)-1H-pyrrol-3-yl]acetate], in assay [1], the IC50 is 1.12 µM and the Emax is 57 ± 6%.
For the molecule `Cc1c(CC(=O)NC(CCO)C(=O)O)cc(-c2ccc(S(C)(=O)=O)cc2)n1-c1ccc(F)cc1` (racemic) [Example 32-II, (R,S)-4-(Hydroxy)-2-[[1-(4-fluorophenyl)-2-methyl-5-(4-methylsulphonylphenyl)-1H-pyrrol-3-yl]acetamido]butanoic Acid], on COX-2, the IC50 amounted to 0.086 µM.
Consider `Cc1c(CC(=O)NC(CCO[N+](=O)[O-])C(=O)O)cc(-c2ccc(S(C)(=O)=O)cc2)n1-c1cccc(F)c1` (racemic) [Example 33, (R,S)-4-(Nitroxy)-2-[[1-(3-fluorophenyl)-2-methyl-5-(4-methylsulphonylphenyl)-1H-pyrrol-3-yl]acetamido]butanoic Acid], for which the Emax in assay [1] stood at 23 ± 2%.
Consider `Cc1c(CC(=O)NC(CO[N+](=O)[O-])C(=O)O)cc(-c2ccc(S(C)(=O)=O)cc2)n1-c1ccc(F)cc1` (stereo in doubt) [Example 29, (S)-3-(Nitroxy)-2-[[1-(4-fluorophenyl)-2-methyl-5-(4-methylsulphonylphenyl)-1H-pyrrol-3-yl]acetamido]propanoic Acid], for which, on COX-2, the IC50 is 0.31 µM. Also, in assay [1], the “NO release properties pIC50 (vasorelaxing potency)” value is reported as “S.E” and the “NO release properties Emax (maximum vasorelaxing effect)” value is reported as “S.E”.
For `Cc1c(CC(=O)NC(CO)C(=O)O)cc(-c2ccc(S(C)(=O)=O)cc2)n1-c1ccc(F)cc1` (stereo in doubt) [Example 29-II, (S)-3-(Hydroxy)-2-[[1-(4-fluorophenyl)-2-methyl-5-(4-methylsulphonylphenyl)-1H-pyrrol-3-yl]acetamido]propanoic Acid], the IC50 at COX-2 worked out at 0.16 µM.
`Cc1c(CC(=O)NC(CO[N+](=O)[O-])C(=O)O)cc(-c2ccc(S(C)(=O)=O)cc2)n1-c1cccc(F)c1` (stereo in doubt) [Example 30, (S)-3-(Nitroxy)-2-[1-(3-fluorophenyl)-2-methyl-5-(4-methylsulphonylphenyl)-1H-pyrrol-3-yl]acetamido]propanoic Acid]: the IC50 at COX-2 amounted to 0.14 µM. In assay [1], the “NO release properties pIC50 (vasorelaxing potency)” value is listed as “S.E” and the “NO release properties Emax (maximum vasorelaxing effect)” value is on record as “S.E”.
Turning to `Cc1c(CC(=O)NC(CO)C(=O)O)cc(-c2ccc(S(C)(=O)=O)cc2)n1-c1cccc(F)c1` (stereo in doubt) [Example 30-II, (S)-3-(Hydroxy)-2-[1-(3-fluorophenyl)-2-methyl-5-(4-methylsulphonylphenyl)-1H-pyrrol-3-yl]acetamido]propanoic Acid], at COX-2, the IC50 was found to be 0.057 µM.
Take `Cc1c(CC(=O)OCCO[N+](=O)[O-])cc(-c2ccc(S(C)(=O)=O)cc2)n1-c1ccccc1` [Example 1, 2-(Nitrooxy)ethyl-2-[1-phenyl-2-methyl-5-(4-methylsulphonylphenyl)-1H-pyrrol-3-yl]acetate]: the IC50 at COX-2 was found to be 0.043 µM. Further, in assay [1], the IC50 is 1.41 µM and the Emax is 66 ± 3%.
In the case of `Cc1c(CC(=O)OCCO)cc(-c2ccc(S(C)(=O)=O)cc2)n1-c1ccccc1` [Example 1-II], the IC50 on COX-2 came out at 0.027 µM.
In the case of `CSc1ccc(-n2c(-c3ccc(S(C)(=O)=O)cc3)cc(CC(=O)OCCO[N+](=O)[O-])c2C)cc1` [Example 5, 2-(Nitroxy)ethyl-[1-(4-methylthiophenyl)-2-methyl-5-(4-methylsulphonylphenyl)-1H-pyrrol-3-yl]-acetate], in assay [1], the IC50 was 0.457 µM and the Emax worked out at 64.9 ± 1.4%.
Take `CSc1ccc(-n2c(-c3ccc(S(C)(=O)=O)cc3)cc(CC(=O)OCCO)c2C)cc1` [Example 5-II, 2-Hydroxyethyl-[1-(4-methylthiophenyl)-2-methyl-5-(4-methylsulphonylphenyl)-1H-pyrrol-3-yl]-acetate]: on COX-2, the IC50 was found to be 0.085 µM.
Still for that read-out and setting: the result for `Cc1c(CC(=O)OCCCO)cc(-c2ccc(S(C)(=O)=O)cc2)n1-c1cccc(F)c1` [Example 8-II, 3-Hydroxypropyl-[1-(3-fluorophenyl)-2-methyl-5-(4-methylsulphonylphenyl)-1H-pyrrol-3-yl]-acetate] reads 0.023 µM; that for `COc1ccc(-n2c(-c3ccc(S(C)(=O)=O)cc3)cc(CC(=O)OCCCO)c2C)cc1` [Example 9-II, 3-Hydroxypropyl-[1-(4-methoxyphenyl)-2-methyl-5-(4-methylsulphonylphenyl)-1H-pyrrol-3-yl]-acetate], 0.7 µM.
`CSc1ccc(-n2c(-c3ccc(S(C)(=O)=O)cc3)cc(CC(=O)OCCCO[N+](=O)[O-])c2C)cc1` [Example 10, 3-(Nitroxy)propyl-[1-(4-methylthiophenyl)-2-methyl-5-(4-methylsulphonylphenyl)-1H-pyrrol-3-yl]-acetate]: the IC50 on COX-2 came out at 0.027 µM. Also, the Emax in assay [1] was 41 ± 8%.
Turning to `CSc1ccc(-n2c(-c3ccc(S(C)(=O)=O)cc3)cc(CC(=O)OCCCO)c2C)cc1` [Example 10-II, 3-(Hydroxy)propyl-[1-(4-methylthiophenyl)-2-methyl-5-(4-methylsulphonylphenyl)-1H-pyrrol-3-yl]-acetate], the IC50 at COX-2 is 0.26 µM.
On to `Cc1c(CC(=O)OCCCCO)cc(-c2ccc(S(C)(=O)=O)cc2)n1-c1cccc(F)c1` [Example 12-II, 4-(hydroxy)butyl-[1-(3-fluorophenyl)-2-methyl-5-(4-methylsulphonylphenyl)-1H-pyrrol-3-yl]-acetate], for which, at COX-2, the IC50 stood at 0.11 µM.
Turning to `CSc1ccc(-n2c(-c3ccc(S(C)(=O)=O)cc3)cc(CC(=O)OCCCCO[N+](=O)[O-])c2C)cc1` [Example 14, 4-(Nitrooxy)butyl-2-[1-(4-thiomethylphenyl)-2-methyl-5-(4-methylsulphonylphenyl)-1H-pyrrol-3-yl]acetate], on COX-2, the IC50 was found to be 0.22 µM. Moreover, the “vasorelaxing effect in the presence of ODQ” value in assay [1] (ODQ 1 μM, guanylate cyclase inhibitor) is “not fully antagonized by ODQ”. For the same molecule, in assay [1], the IC50 was 5.01 µM and the Emax worked out at 55 ± 15%.
In the case of `CSc1ccc(-n2c(-c3ccc(S(C)(=O)=O)cc3)cc(CC(=O)OCCCCO)c2C)cc1` [Example 14-II, 4-(Hydroxy)butyl-2-[1-(4-thiomethylphenyl)-2-methyl-5-(4-methylsulphonylphenyl)-1H-pyrrol-3-yl]acetate], the IC50 at COX-2 was found to be 0.055 µM.
Still for that read-out and setting: the result for `Cc1c(CC(=O)NCCO)cc(-c2ccc(S(C)(=O)=O)cc2)n1-c1cccc(F)c1` [Example 24-II, N-[(2-hydroxy)ethyl]-2-[1-(3-fluorophenyl)-2-methyl-5-(4-methylsulphonylphenyl)-1H-pyrrol-3-yl]acetamide] reads 0.29 µM.
Take `Cc1c(CCOCCO[N+](=O)[O-])cc(-c2ccc(S(C)(=O)=O)cc2)n1-c1ccccc1` [Example 36, 2-[2-[1-Phenyl-2-methyl-5-(4-methylsulphonylphenyl)-1H-pyrrol-3-yl]ethoxy]ethyl Nitrate]: the IC50 at COX-2 was 0.017 µM. Further, in assay [1], the IC50 was 6.03 µM and the Emax was 65%.
For the molecule `Cc1c(CCOCCCO)cc(-c2ccc(S(C)(=O)=O)cc2)n1-c1cccc(F)c1` [Example 42-II, 3-[2-(1-(3-Fluorophenyl)-2-methyl-5-(4-methylsulphonylphenyl)-1H-pyrrol-3-yl)ethoxy]propanol], the IC50 at COX-2 came out at 1.5 µM.

One may read the Emax as the size of the effect at its maximum, as opposed to the concentration needed.
